Measurements as given in patent publication US10723706B2, “Perk inhibitors and uses thereof in treating diseases associated with aggregation-prone proteins” (Ramot at Tel-Aviv University Ltd., priority 2016, dated 2020).
Entries after “also recorded” stand apart in the source; their conditions may differ.

How the values were obtained:
R6/2 transgenic mice [1] = test: Rotarod test in R6/2 HD model mice; assay type: in vivo, mouse; conditions: 1 mg/kg continuous for 28 days
Description: Motor activity was assessed by the rotarod test using the San Diego Instrument, Rotor-Rod (San Diego Instruments, CA, USA) (0-25 RPM). R6/2 mice and controls were tested every week after pump transplantation. Each test consisted of 3 consecutive measurements of 5 minutes on 4 rpm, 60 minutes of rest, 3 times 0-40 rpm. The latency to fall was recorded.
For the therapeutic assessment of MK-28 delivery, Alzet pumps model 1004, with a rate of 0.11 μl/hour and 28 days compound delivery were used. Five groups of mice were studied: (1) Transgenic (TG) treated with MK-28, (2) TG without treatment (pumps with vehicle), (3) Wild-type (WT) treated with MK-28, (4) WT without treatment (pumps with vehicle), (5) WT without pumps.
Alzet pumps were implanted at 4 weeks of age and MK-28 was administered at 1 mg/kg with continuous dosing for 28 days. This concentration is in a typical clinical dose range. […] Vocalization tests were also performed and survival was assessed. […]
Rotarod analysis was performed by assessing the maximum performance of each animal during three consecutive trials at different time points. The analysis evaluated the motor behavior of animals starting one week after the pump implantation (equivalent to the mice fifth week of life) and ending by seven weeks after first MK-28 delivery.

STHdhQ111/111 cells = test: Rescue of cells incubated in DMEM without serum and without Tun, PI cell cycle FACS; assay type: cell-based, murine; conditions: 48 hours in DMEM without serum and without Tun
Description: STHdhQ7/7 and STHdhQ111/111 cells were grown as described in Leitman et al. [PLoS One 2014, 9(3):e90803].
After the indicated treatment times in full medium or in DMEM without serum, cells were incubated with propidium iodide (PI) solution ([…]) and read by flow cytometry as described in Leitman et al. [PLoS One 2014, 9(3):e90803]. Cells in sub-G0/G1 were counted as apoptotic/dead cells.
The activity of the novel inhibitors, compared to A4, in preventing cytotoxicity induced by pathogenic Htt, was then tested. A stable murine striatal cell line expressing full-length polyQ-expanded Htt, STHdhQ^111/111, was used.

R6/2 transgenic mice [2] = test: Blood glucose levels in R6/2 HD model and WT mice; assay type: in vivo, mouse
Description: Animals were treated for 4 weeks starting at 4 weeks of age with 1 mg/ml MK-28 or with vehicle (DMSO/PEG400 1:1), delivered using Alzet pumps. […] N=13 TG, 13 TG+MK28, 16 WT, 15 WT+MK28, 15 None.
The HD mouse model used was the R6/2 transgenic mice model B6CBA-R6/2 (CAG 160) Jackson Lab USA. R6/2 mice express only the exon 1 of the human Htt gene, including 150 CAG repeats driven by the human Htt promoter directly influencing the transgene expression levels and thereby the development of HD-like pathology. Out of all the existing mouse models of HD, the R6/2 mouse is one that develops symptoms the most rapidly and has the most widespread occurrence of Htt inclusions in the brain. Furthermore, these lines are the most widely used in therapeutic trials. In these animals, the initial signs of motor symptoms commence around 3 weeks of age. […] While R6/2 mice are initially hyperactive, they gradually reduce their motor activity and become hypoactive around 8 weeks of age. Their motor function and coordination progressively deteriorate, and can be detected as a reduction in the time they can stay on a rotating rod, the so-called Rotarod. […]
Alzet pumps were implanted at 4 weeks of age and MK-28 was administered at 1 mg/kg with continuous dosing for 28 days. […] Vocalization tests were also performed and survival was assessed. […]

R6/2 transgenic mice [3] = test: Ultrasonic vocalization of R6/2 mice; assay type: in vivo, mouse
Description: Mice were treated as described in FIGS. 7 and 8. Transgenic mice receiving (MK-28 TG+) or vehicle (TG) were analyzed for vocalization as number of syllables in 5 minutes intervals. (n=3-4, p=0.059).
Alzet pumps were implanted at 4 weeks of age and MK-28 was administered at 1 mg/kg with continuous dosing for 28 days. This concentration is in a typical clinical dose range. The mice's motor function and coordination were tested by Rotarod, and limb clasping, ledge, gait and kyphosis were also tested. Vocalization tests were also performed and survival was assessed. Tests were performed in two independent blind experiments.
Vocalization was evaluated, as it reflects motor and cognitive abilities.

CN(/N=C\c1ccc(O)c(O)c1)c1nc(-c2ccccc2)cc(-c2ccccc2)n1 [Compound 3, 2-{N-methyl-N′-(3,4-dihydroxybenzylidene)hydrazinyl}-4,6-diphenylpyrimidine]
Rotarod motor performance of TG mice versus untreated TG (R6/2 transgenic mice [1]; R6/2 TG mice, p<0.05, listed as MK-28, 1 mg/kg): significant improvement in general motor performance; also recorded: significant improvement in motor function
Rotarod motor performance of WT mice (R6/2 transgenic mice [1]; WT mice): no compromised motor performance
protective (rescue) effect without ER stressor (STHdhQ111/111 cells): strong protective effect, in the low micromolar range
protective (rescue) effect without ER stressor (STHdhQ111/111 cells; listed as MK-28): strong rescue effect
blood glucose levels in TG mice (R6/2 transgenic mice [2]; R6/2 TG mice, 4 weeks treatment by Alzet pump from 4 weeks of age): reduced
blood glucose levels in WT mice (R6/2 transgenic mice [2]; WT mice, 4 weeks treatment by Alzet pump, listed as MK-28): no effect; also recorded: did not affect glucose levels
vocalization, number of syllables (R6/2 transgenic mice [3]; R6/2 TG mice treated with MK-28, n=3-4, p=0.059): 13.75 syllables in 5 minutes
vocalization effect versus untreated R6/2 (R6/2 transgenic mice [3]; R6/2 TG mice, listed as MK-28): three fold difference; also recorded: improved
